Source: ChEMBL document CHEMBL1128753, “Synthesis and bioactivity of photolabile sirolimus (rapamycin) analogs” (Bioorg Med Chem Lett, 1995)

Assays:
[1] = system: T-cell; assay: Tested for inhibition of T cell proliferation in the co-mitogen stimulated proliferation assay; assay type: functional, cell-based; settings: Homo sapiens
[2] = system: Mus musculus; assay: Mean Survival time of the graft was evaluated in murine skin allograft transplantation assay upon intraperitoneal administration of 4 mg/kg dose; assay type: functional

| Compound | IC50 [1] [nM] | MST [2] [days] |
| --- | --- | --- |
| CO[C@H]1C[C@@H]2CC[C@@H](C)[C@@](O)(O2)C(=O)C(=O)N2CCCC[C@H]2C(=O)O[C@H]([C@H](C)C[C@@H]2CC[C@@H](O)[C@H](OC)C2)CC(=O)[C@H](C)/C=C(\C)[C@@H](OC(=O)CCCCCNc2ccc(N=[N+]=[N-])cc2[N+](=O)[O-])[C@@H](OC)C(=O)[C@H](C)C[C@H](C)/C=C/C=C/C=C/1C | 7.8 | – |
| CO[C@H]1C[C@@H]2CC[C@@H](C)[C@@](O)(O2)C(=O)C(=O)N2CCCC[C@H]2C(=O)O[C@H]([C@H](C)C[C@@H]2CC[C@@H](OC(=O)CCCCCCCNc3ccc(N=[N+]=[N-])cc3[N+](=O)[O-])[C@H](OC)C2)CC(=O)[C@H](C)/C=C(\C)[C@@H](O)[C@@H](OC)C(=O)[C@H](C)C[C@H](C)/C=C/C=C/C=C/1C | 10.2 | – |
| CO[C@H]1C[C@@H]2CC[C@@H](C)[C@@](O)(O2)C(=O)C(=O)N2CCCC[C@H]2C(=O)O[C@H]([C@H](C)C[C@@H]2CC[C@@H](OC(=O)Cc3ccc(N=[N+]=[N-])cc3)[C@H](OC)C2)CC(=O)[C@H](C)/C=C(\C)[C@@H](O)[C@@H](OC)C(=O)[C@H](C)C[C@H](C)/C=C/C=C/C=C/1C | 1 | 10.7 |
| CO[C@H]1C[C@@H]2CC[C@@H](C)[C@@](O)(O2)C(=O)C(=O)N2CCCC[C@H]2C(=O)O[C@H]([C@H](C)C[C@@H]2CC[C@@H](OC(=O)Cc3ccc(N=[N+]=[N-])c(I)c3)[C@H](OC)C2)CC(=O)[C@H](C)/C=C(\C)[C@@H](O)[C@@H](OC)C(=O)[C@H](C)C[C@H](C)/C=C/C=C/C=C/1C | 3 | 12.7 |
| CO[C@H]1C[C@@H]2CC[C@@H](C)[C@@](O)(O2)C(=O)C(=O)N2CCCC[C@H]2C(=O)O[C@H]([C@H](C)C[C@@H]2CC[C@@H](O)[C@H](OC)C2)CC(=O)[C@H](C)/C=C(\C)[C@@H](OC(=O)Cc2ccc(N=[N+]=[N-])cc2)[C@@H](OC)C(=O)[C@H](C)C[C@H](C)/C=C/C=C/C=C/1C | 5.8 | – |
| CO[C@H]1C[C@@H]2CC[C@@H](C)[C@@](O)(O2)C(=O)C(=O)N2CCCC[C@H]2C(=O)O[C@H]([C@H](C)C[C@@H]2CC[C@@H](O)[C@H](OC)C2)CC(=O)[C@H](C)/C=C(\C)[C@@H](OC(=O)CCCCCCCNc2ccc(N=[N+]=[N-])cc2[N+](=O)[O-])[C@@H](OC)C(=O)[C@H](C)C[C@H](C)/C=C/C=C/C=C/1C | 10.5 | – |
| CO[C@H]1C[C@@H]2CC[C@@H](C)[C@@](O)(O2)C(=O)C(=O)N2CCCC[C@H]2C(=O)O[C@H]([C@H](C)C[C@@H]2CC[C@@H](OC(=O)CCCCCNc3ccc(N=[N+]=[N-])cc3[N+](=O)[O-])[C@H](OC)C2)CC(=O)[C@H](C)/C=C(\C)[C@@H](O)[C@@H](OC)C(=O)[C@H](C)C[C@H](C)/C=C/C=C/C=C/1C | 2.5 | – |
| CO[C@H]1C[C@@H]2CC[C@@H](C)[C@@](O)(O2)C(=O)C(=O)N2CCCC[C@H]2C(=O)O[C@H]([C@H](C)C[C@@H]2CC[C@@H](O)[C@H](OC)C2)CC(=O)[C@H](C)/C=C(\C)[C@@H](O)[C@@H](OC)C(=O)[C@H](C)C[C@H](C)/C=C/C=C/C=C/1C [SIROLIMUS] | 9.8 | 12.01 |
